This note sets out measurements from patent US8288371B2, “Ortho pyrrolidine, benzyl-substituted heterocycle CCR1 antagonists for autoimmune diseases and inflammation” (Pharmacopeia, LLC, priority 2007, dated 2012).

This experiment concerns the target T1, human CCR1 (Homo sapiens, UniProt P32246).
T1 sequence (P32246 1-355): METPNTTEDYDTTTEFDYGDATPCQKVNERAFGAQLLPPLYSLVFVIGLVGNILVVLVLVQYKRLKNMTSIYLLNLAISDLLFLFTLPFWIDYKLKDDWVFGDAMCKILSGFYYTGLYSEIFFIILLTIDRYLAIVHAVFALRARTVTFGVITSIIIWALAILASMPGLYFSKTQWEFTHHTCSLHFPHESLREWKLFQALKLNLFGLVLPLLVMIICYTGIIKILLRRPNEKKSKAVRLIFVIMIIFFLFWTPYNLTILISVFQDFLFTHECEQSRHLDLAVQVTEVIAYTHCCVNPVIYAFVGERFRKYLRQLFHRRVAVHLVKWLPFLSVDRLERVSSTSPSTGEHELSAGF
Description: CCR1 binding protocol (SPA, [125I]-MIP-1α displacement). The settings on record: cell membrane expressing human CCR1, 0.1 nM [125I]-MIP-1α, 4 hours at ambient temperature; read-out: Relative potency (IC50). In a few lines:
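Human CCR1 membranes (0.5 μg/well) on SPA beads were incubated with compound and 0.1 nM [125I]-MIP-1α (final) for 4 h at ambient temperature. Buffer was Tris pH 7.4 with NaCl, KCl, MnCl and 0.1% BSA. IC50 came from ½-log compound dilutions (10 mM top DMSO stock) by displacement of bound radioligand.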
In the case of `Cc1nnc([C@H]2CCCN2C(=O)N[C@H](C)c2ccccc2)n1Cc1ccc(Cl)cc1` [Compound 213], the IC50 (commonly the midpoint of a concentration-inhibition curve) is less than 50 nM.
As for `CC[C@H](NC(=O)N1CCC[C@@H]1c1nnc(C)n1Cc1ccc(Cl)cc1)c1c(C)noc1C` [Compound 214], the IC50 was less than 50 nM.
Consider `COC(=O)c1ccc(NC(=O)N2CCC[C@@H]2c2nnc(C)n2Cc2ccc(Cl)cc2)c(C)c1` [Compound 215], for which the IC50 was less than 50 nM.
Take `CNC(=O)c1ccc(C)c(NC(=O)N2CCC[C@@H]2c2nnc(C)n2Cc2ccc(Cl)cc2)c1` [Compound 216]: the IC50 was less than 50 nM.
Turning to `COC(=O)c1cccc(C)c1NC(=O)N1CCC[C@@H]1c1nnc(C)n1Cc1ccc(Cl)cc1` [Compound 217], the half-maximal inhibitory concentration (IC50) is less than 50 nM.
With `Cc1nnc([C@H]2CCCN2C(=O)N[C@@H](C)c2ccc(F)cc2)n1Cc1ccc(Cl)cc1` [Compound 218], the IC50 was less than 50 nM.
On to `Cc1cccc(C(N)=O)c1NC(=O)N1CCC[C@@H]1c1nnc(C)n1Cc1ccc(Cl)cc1` [Compound 219], for which the IC50 is less than 50 nM.
For `Cc1nnc([C@H]2CCCN2C(=O)NC(C)(C)c2ccc(C(F)(F)F)cc2)n1Cc1ccc(Cl)cc1` [Compound 220], the 50% inhibitory concentration (IC50) is less than 50 nM.
Turning to `Cc1nnc([C@H]2CCCN2C(=O)NCc2ccc(C(F)(F)F)nc2)n1Cc1ccc(Cl)cc1` [Compound 221], the IC50 was in the range of 50 to 500 nM.
For the molecule `Cc1onc(-c2ccccc2)c1N/C(=N/C#N)N1CCC[C@@H]1c1nnc(C)n1Cc1ccc(Cl)cc1` [Compound 222], the IC50 was 50 to 500 nM.
Consider `Cc1ncccc1NC(=O)N1CCC[C@@H]1c1nnc(C)n1Cc1ccc(Cl)cc1` [Compound 223], for which the IC50 was 50 to 500 nM.
The value for `Cc1nnc([C@H]2CCCN2C(=O)NCc2ccccc2)n1Cc1ccc(Cl)cc1` [Compound 224] was 50 to 500 nM.
Regarding `Cc1ccncc1NC(=O)N1CCC[C@@H]1c1nnc(C)n1Cc1ccc(Cl)cc1` [Compound 225], the IC50 lay in the range of 50 to 500 nM.
Under `Cc1noc(-c2ccccc2)c1NC(=O)N1CCC[C@@H]1c1nnc(C(F)(F)F)n1Cc1ccc(Cl)cc1` [Compound 226] stands 50 to 500 nM; under `Cc1nnc([C@H]2CCCN2C(=O)N[C@@H](C)c2ccccc2)n1Cc1ccc(Cl)cc1` [Compound 227], 50 to 500 nM.
As to `Cc1nnc([C@H]2CCCN2C(=O)NCc2ccc(F)cc2)n1Cc1ccc(Cl)cc1` [Compound 228], the IC50 was 50 to 500 nM.
Consider `Cc1ccc(C(N)=O)cc1NC(=O)N1CCC[C@@H]1c1nnc(C)n1Cc1ccc(Cl)cc1` [Compound 229], for which the IC50 is 50 to 500 nM.
With `CNC(=O)c1cccc(NC(=O)N2CCC[C@@H]2c2nnc(C)n2Cc2ccc(Cl)cc2)c1C` [Compound 231], the IC50 was 50 to 500 nM.
As to `CC(=O)N1CCC[C@H](NC(=O)N2CCC[C@@H]2c2nnc(C)n2Cc2ccc(Cl)cc2)C1` [Compound 232], the IC50 was 50 to 500 nM.
Under `Cc1cccc(C(=O)N(C)C)c1NC(=O)N1CCC[C@@H]1c1nnc(C)n1Cc1ccc(Cl)cc1` [Compound 233] stands 50 to 500 nM.
As to `CNC(=O)c1ccc(NC(=O)N2CCC[C@@H]2c2nnc(C)n2Cc2ccc(Cl)cc2)c(C)c1` [Compound 234], the concentration for half-maximal inhibition (IC50) fell in the range of 50 to 500 nM.
On to `O=C(N[C@H]1CCOc2cc(C(F)(F)F)ccc21)N1CCC[C@@H]1c1nnc(C(F)(F)F)n1Cc1ccc(Cl)cc1` [Compound 235], for which the IC50 was 50 to 500 nM.
The value for `Cc1cc(C(=O)N(C)C)ccc1NC(=O)N1CCC[C@@H]1c1nnc(C)n1Cc1ccc(Cl)cc1` [Compound 236] was 50 to 500 nM; that for `Cc1nnc([C@H]2CCCN2C(=O)Nc2ccncc2)n1Cc1ccc(Cl)cc1` [Compound 237] was 50 to 500 nM; that for `Cc1c(NC(=O)N2CCC[C@@H]2c2nnc(C)n2Cc2ccc(Cl)cc2)cccc1C(=O)N(C)C` [Compound 238] was 50 to 500 nM.
Turning to `Cc1cc(C)c(NC(=O)N2CCC[C@@H]2c2nnc(C)n2Cc2ccc(Cl)cc2)c(C(=O)N(C)C)c1` [Compound 239], the IC50 was 50 to 500 nM.
Consider `Cc1cc(C(=O)O)ccc1NC(=O)N1CCC[C@@H]1c1nnc(C)n1Cc1ccc(Cl)cc1` [Compound 240], for which the IC50 was in the range of 50 to 500 nM.
